Measured values taken from the NIST ThermoML archive (doi:10.1016/j.jct.2016.06.034).
Numbers after ± are expanded uncertainties.

Assay: mn = molality of the nth substance listed, in mol/kg
Conditions: for electrical conductivity / speed of sound / mass density: 84.5 kPa, Liquid; for electrical conductivity: Alternating current cell with electrodes; for speed of sound: Frequency=3 MHz, Sing-around technique in a fixed-path interferometer; for mass density: Vibrating tube method; for surface tension liquid-gas: platinum plate method

Work on `CCCCCCCCCCn1cc[n+](C)c1.[Br-]` [1-decyl-3-methylimidazolium bromide] + O yielded an electrical conductivity (288.15 K, m1 = 1e-05) of 0.000112 S/m, an electrical conductivity (288.15 K, m1 = 2e-05) of 0.000223 S/m and an electrical conductivity (288.15 K, m1 = 4e-05) of 0.000329 S/m. It also gave an electrical conductivity (288.15 K, m1 = 5e-05) of 0.000442 S/m, an electrical conductivity (288.15 K, m1 = 8e-05) of 0.000678 S/m and an electrical conductivity (288.15 K, m1 = 0.00012) of 0.00103 S/m. It also gave an electrical conductivity (288.15 K, m1 = 0.00018) of 0.00151 S/m, an electrical conductivity (288.15 K, m1 = 0.00026) of 0.00212 ± 0.0035 S/m and an electrical conductivity (288.15 K, m1 = 0.00033) of 0.00273 ± 0.0034 S/m. The electrical conductivity (288.15 K, m1 = 0.00044) was 0.00357 ± 0.0034 S/m, the electrical conductivity (288.15 K, m1 = 0.00056) was 0.00455 ± 0.0035 S/m and the electrical conductivity (288.15 K, m1 = 0.00075) was 0.006 ± 0.0034 S/m. The electrical conductivity (288.15 K, m1 = 0.00098) was 0.00777 ± 0.0034 S/m, the electrical conductivity (288.15 K, m1 = 0.00127) was 0.01 ± 0.0034 S/m and the electrical conductivity (288.15 K, m1 = 0.00152) was 0.0119 ± 0.0033 S/m. It also gave an electrical conductivity (288.15 K, m1 = 0.0021) of 0.0163 ± 0.0034 S/m, an electrical conductivity (288.15 K, m1 = 0.00279) of 0.0217 ± 0.0034 S/m and an electrical conductivity (288.15 K, m1 = 0.00349) of 0.027 ± 0.0033 S/m. For the same compound, the electrical conductivity (288.15 K, m1 = 0.00439) was 0.0336 ± 0.0032 S/m, the electrical conductivity (288.15 K, m1 = 0.00754) was 0.0559 ± 0.0031 S/m and the electrical conductivity (288.15 K, m1 = 0.01045) was 0.0758 ± 0.0031 S/m. The electrical conductivity (288.15 K, m1 = 0.01291) was 0.0921 ± 0.0031 S/m, the electrical conductivity (288.15 K, m1 = 0.01562) was 0.11 ± 0.0031 S/m and the electrical conductivity (288.15 K, m1 = 0.01821) was 0.126 ± 0.0032 S/m. It also gave an electrical conductivity (288.15 K, m1 = 0.0208) of 0.143 ± 0.0032 S/m, an electrical conductivity (288.15 K, m1 = 0.02334) of 0.158 ± 0.0033 S/m and an electrical conductivity (288.15 K, m1 = 0.0258) of 0.173 ± 0.0034 S/m. It also gave an electrical conductivity (288.15 K, m1 = 0.02825) of 0.188 ± 0.0034 S/m, an electrical conductivity (288.15 K, m1 = 0.03047) of 0.2 ± 0.0035 S/m and an electrical conductivity (288.15 K, m1 = 0.03259) of 0.212 ± 0.0036 S/m. It also gave an electrical conductivity (288.15 K, m1 = 0.03462) of 0.224 ± 0.0037 S/m, an electrical conductivity (288.15 K, m1 = 0.03662) of 0.236 ± 0.0037 S/m and an electrical conductivity (288.15 K, m1 = 0.03965) of 0.252 ± 0.0038 S/m. It also gave an electrical conductivity (288.15 K, m1 = 0.04174) of 0.262 ± 0.0038 S/m, an electrical conductivity (288.15 K, m1 = 0.04366) of 0.27 ± 0.0037 S/m and an electrical conductivity (288.15 K, m1 = 0.04517) of 0.275 ± 0.0035 S/m. The electrical conductivity (288.15 K, m1 = 0.04687) was 0.28 ± 0.0035 S/m, the electrical conductivity (288.15 K, m1 = 0.04895) was 0.285 ± 0.0036 S/m and the electrical conductivity (288.15 K, m1 = 0.05102) was 0.289 ± 0.0036 S/m. It also gave an electrical conductivity (288.15 K, m1 = 0.05341) of 0.294 ± 0.0037 S/m, an electrical conductivity (288.15 K, m1 = 0.05563) of 0.298 ± 0.0037 S/m and an electrical conductivity (288.15 K, m1 = 0.05739) of 0.301 ± 0.0037 S/m. The electrical conductivity (288.15 K, m1 = 0.05949) was 0.306 ± 0.0038 S/m, the electrical conductivity (288.15 K, m1 = 0.06232) was 0.311 ± 0.0038 S/m and the speed of sound (288.15 K, m1 = 0.0095) was 1468.8 ± 1.2 m/s. It also gave a speed of sound (288.15 K, m1 = 0.01379) of 1469.8 ± 1.2 m/s, a speed of sound (288.15 K, m1 = 0.01652) of 1470.4 ± 1.2 m/s and a speed of sound (288.15 K, m1 = 0.02179) of 1471.6 ± 1.2 m/s. The speed of sound (288.15 K, m1 = 0.02615) was 1472.5 ± 1.2 m/s, the speed of sound (288.15 K, m1 = 0.03106) was 1473.5 ± 1.2 m/s and the speed of sound (288.15 K, m1 = 0.03338) was 1474 ± 1.2 m/s. It also gave a speed of sound (288.15 K, m1 = 0.03819) of 1475 ± 1.2 m/s, a speed of sound (288.15 K, m1 = 0.0406) of 1475.3 ± 1.2 m/s and a speed of sound (288.15 K, m1 = 0.04332) of 1475.6 ± 1.2 m/s. For the same compound, the speed of sound (288.15 K, m1 = 0.04614) was 1476 ± 1.2 m/s, the speed of sound (288.15 K, m1 = 0.05515) was 1476.4 ± 1.2 m/s and the speed of sound (288.15 K, m1 = 0.06396) was 1476.7 ± 1.2 m/s. The speed of sound (288.15 K, m1 = 0.07815) was 1477 ± 1.2 m/s, the speed of sound (288.15 K, m1 = 0.122) was 1477.9 ± 1.2 m/s and the speed of sound (288.15 K, m1 = 0.1726) was 1478.9 ± 1.2 m/s. The speed of sound (288.15 K, m1 = 0.2247) was 1480 ± 1.2 m/s, the speed of sound (288.15 K, m1 = 0.2539) was 1480.6 ± 1.2 m/s and the mass density (288.15 K, m1 = 0.0095) was 999.502 ± 0.11 kg/m3. For the same compound, the mass density (288.15 K, m1 = 0.01379) was 999.684 ± 0.11 kg/m3, the mass density (288.15 K, m1 = 0.01652) was 999.799 ± 0.11 kg/m3 and the mass density (288.15 K, m1 = 0.02179) was 1000.02 ± 0.11 kg/m3. For the same compound, the mass density (288.15 K, m1 = 0.02615) was 1000.2 ± 0.11 kg/m3, the mass density (288.15 K, m1 = 0.03106) was 1000.41 ± 0.11 kg/m3 and the mass density (288.15 K, m1 = 0.03338) was 1000.51 ± 0.11 kg/m3. It also gave a mass density (288.15 K, m1 = 0.03819) of 1000.71 ± 0.11 kg/m3, a mass density (288.15 K, m1 = 0.0406) of 1000.81 ± 0.11 kg/m3 and a mass density (288.15 K, m1 = 0.04332) of 1000.92 ± 0.11 kg/m3. It also gave a mass density (288.15 K, m1 = 0.04614) of 1001.03 ± 0.11 kg/m3, a mass density (288.15 K, m1 = 0.05515) of 1001.35 ± 0.11 kg/m3 and a mass density (288.15 K, m1 = 0.06396) of 1001.66 ± 0.11 kg/m3. For the same compound, the mass density (288.15 K, m1 = 0.07815) was 1002.15 ± 0.11 kg/m3, the mass density (288.15 K, m1 = 0.122) was 1003.65 ± 0.11 kg/m3 and the mass density (288.15 K, m1 = 0.1726) was 1005.33 ± 0.11 kg/m3. The mass density (288.15 K, m1 = 0.2247) was 1007.03 ± 0.11 kg/m3, the mass density (288.15 K, m1 = 0.2539) was 1007.95 ± 0.11 kg/m3 and the surface tension liquid-gas (293.15 K, m1 = 0.00805) was 56.25 ± 0.44 mN/m. For the same compound, the surface tension liquid-gas (293.15 K, m1 = 0.01202) was 52.74 ± 0.42 mN/m, the surface tension liquid-gas (293.15 K, m1 = 0.01627) was 49.46 ± 0.39 mN/m and the surface tension liquid-gas (293.15 K, m1 = 0.02206) was 45.32 ± 0.36 mN/m. The surface tension liquid-gas (293.15 K, m1 = 0.02718) was 42.2 ± 0.33 mN/m, the surface tension liquid-gas (293.15 K, m1 = 0.03028) was 40.63 ± 0.29 mN/m and the surface tension liquid-gas (293.15 K, m1 = 0.03568) was 38.17 ± 0.25 mN/m. It also gave a surface tension liquid-gas (293.15 K, m1 = 0.03969) of 37.78 ± 0.21 mN/m, a surface tension liquid-gas (293.15 K, m1 = 0.04205) of 37.64 ± 0.2 mN/m and a surface tension liquid-gas (293.15 K, m1 = 0.04444) of 37.78 ± 0.21 mN/m. It also gave a surface tension liquid-gas (293.15 K, m1 = 0.04581) of 37.96 ± 0.22 mN/m, a surface tension liquid-gas (293.15 K, m1 = 0.04833) of 38.56 ± 0.23 mN/m and a surface tension liquid-gas (293.15 K, m1 = 0.06141) of 39.32 ± 0.2 mN/m. For the same compound, the surface tension liquid-gas (293.15 K, m1 = 0.0858) was 39.48 ± 0.21 mN/m, the surface tension liquid-gas (293.15 K, m1 = 0.1481) was 39.36 ± 0.21 mN/m and the surface tension liquid-gas (293.15 K, m1 = 0.1979) was 39.38 ± 0.21 mN/m. For the same compound, the electrical conductivity (293.15 K, m1 = 1e-05) was 0.00016 S/m, the electrical conductivity (293.15 K, m1 = 3e-05) was 0.000289 S/m and the electrical conductivity (293.15 K, m1 = 6e-05) was 0.000554 S/m. For the same compound, the electrical conductivity (293.15 K, m1 = 7e-05) was 0.000686 S/m, the electrical conductivity (293.15 K, m1 = 9e-05) was 0.00082 S/m and the electrical conductivity (293.15 K, m1 = 0.0001) was 0.000947 S/m. It also gave an electrical conductivity (293.15 K, m1 = 0.00011) of 0.00106 S/m, an electrical conductivity (293.15 K, m1 = 0.00016) of 0.00146 S/m and an electrical conductivity (293.15 K, m1 = 0.00025) of 0.00231 ± 0.004 S/m. It also gave an electrical conductivity (293.15 K, m1 = 0.00047) of 0.00432 ± 0.0039 S/m, an electrical conductivity (293.15 K, m1 = 0.00077) of 0.00695 ± 0.0039 S/m and an electrical conductivity (293.15 K, m1 = 0.0015) of 0.0134 ± 0.0039 S/m.
